Data on three compounds can be found in article PMC4574779, “Selective Production of 9R-Hydroxy-10E,12Z,15Z-Octadecatrienoic Acid from α-Linolenic Acid in Perilla Seed Oil Hydrolyzate by a Lipoxygenase from Nostoc Sp. SAG 25.82” (PLoS ONE, 2015).

For this experiment, the target named is T1, 9R-LOX (9R-lipoxygenase) from Nostoc sp. SAG 25.82 (Nostoc sp. PCC 7120 = FACHB-418, UniProt Q8YK97).
T1 construct: gene all8020; 9R-lox/pET-15b, His-tagged, E. coli ER2566, His-Trap purified
T1 sequence (Q8YK97 318-773 limits assumed): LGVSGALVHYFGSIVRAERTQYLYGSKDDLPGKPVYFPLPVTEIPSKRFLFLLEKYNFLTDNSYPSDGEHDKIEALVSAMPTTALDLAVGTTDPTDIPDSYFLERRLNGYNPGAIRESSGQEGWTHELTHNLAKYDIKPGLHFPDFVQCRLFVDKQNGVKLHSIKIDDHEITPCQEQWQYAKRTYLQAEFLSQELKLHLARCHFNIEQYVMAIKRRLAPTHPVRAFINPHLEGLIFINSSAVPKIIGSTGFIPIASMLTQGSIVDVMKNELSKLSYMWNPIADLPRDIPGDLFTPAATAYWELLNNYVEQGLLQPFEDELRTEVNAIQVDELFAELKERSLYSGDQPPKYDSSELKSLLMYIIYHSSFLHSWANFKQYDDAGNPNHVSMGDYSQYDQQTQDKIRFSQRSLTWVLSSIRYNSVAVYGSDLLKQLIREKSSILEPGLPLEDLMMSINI
The experiment in a line: oxygen uptake (Clark-type electrode), nonlinear Michaelis-Menten fit. To be noted: O2 co-substrate; 50 mM Tris-HCl pH 8.5; 25°C in methods (results text: 15°C, 5% acetone, 0.2% Tween 80). The experiment is classed as biochemical. The text has this: oxygen uptake (Clark-type electrode), nonlinear Michaelis-Menten fit on 9R-LOX (9R-lipoxygenase) from Nostoc sp. SAG 25.82

As for `CCCCC/C=C\C/C=C\CCCCCCCC(=O)O` [LA, Linoleic acid], the Km was found to be 404 ± 30 µM. With `CCCCC/C=C\C/C=C\C/C=C\CCCCC(=O)O` [GLA, γ-Linolenic acid], the Km was 54 ± 0.8 µM. With `CC/C=C\C/C=C\C/C=C\CCCCCCCC(=O)O` [ALA, α-Linolenic acid], the Km worked out at 54 ± 1.3 µM.
